Marks after values point to notes of the source that are not given here.
Key:
different cells = tested on: different cells; design: method as in PMID 23658730, doi:10.4236/aim.2016.64027, PMID 20603153; settings: ref [19], [60], [61]; cited from earlier work
FIPV strain WSU 79-1146 = experiment: Cytopathic effect inhibition assay (time of addition, MTT); format: cell-based, feline infectious peritonitis virus
Experimental: The cytopathic effect (CPE) inhibition assay with slight modifications was used as previously described. […] In pretreatment, the compounds were included in the cell culture medium for 8 h and were removed prior to virus infection. In cotreatment, the compounds were mixed with virus in the medium, added simultaneously to the cells, and left on the cells throughout. For posttreatment, the compounds were added to the cells 2 h postinfection (hpi) and remained throughout the time of infection. […] After incubation at 37°C for 48 and 72 h, the cell viability was determined by MTT.
The percentage of protection was calculated based on the OD using the following formula: (3) Percentage of protection %=OD570 T−OD570 V/OD570 C−OD570 V×100, where T is the treated sample, V is the virus-infected control, and C is the negative control.
The median effective concentration (EC50) is the concentration of compound required to achieve 50% protection against virus-induced CPE.

CrFK cells = experiment: Cellular uptake study by fluorescence microscopy; format: cell-based, feline; settings: 20 μM, examined at 1, 3 and 6 h
Experimental: The cellular uptake of curcumin and the Cur-CS nanoparticles by CrFK cells was examined using the fluorescence method. […] The plates were incubated at 37°C in an incubator with 5% CO2 for 24 h. […] At these intervals, the cells were rinsed three times with PBS. […] The dried coverslips were mounted on a glass slide, and images were captured by an Olympus IX81 inverted fluorescence microscope (Olympus, Japan) under a 535–600 nm filter.

For COc1cc(/C=C/C(=O)CC(=O)/C=C/c2ccc(O)c(OC)c2)ccc1O [Curcumin], the “Exposure up to which no cytotoxic effect was observed” value (different cells) is given as 30 µM, the SI (FIPV strain WSU 79-1146; 48 h, CC50/EC50) is given as 3.72 and the EC50 (FIPV strain WSU 79-1146; Alphacoronavirus 1, 48 h, 50% protection against virus-induced CPE, 100 TCID50 FIPV in CrFK cells) is given as 15.9 µM. The Percentage of protection (FIPV strain WSU 79-1146; cotreatment, 48 h, 5 μM) was 21.98 ± 7.01^b %, the Percentage of protection (FIPV strain WSU 79-1146; cotreatment, 48 h, 10 μM) was 40.08 ± 3.71^d % and the Percentage of protection (FIPV strain WSU 79-1146; cotreatment, 48 h, 20 μM) was 55.95 ± 1.82^e %. For the same compound, the Percentage of protection (FIPV strain WSU 79-1146; cotreatment, 48 h, 20 μM, listed as curcumin) was 56%, the Percentage of protection (FIPV strain WSU 79-1146; cotreatment, 72 h, 5 μM) was 11.99 ± 3.43^b % and the Percentage of protection (FIPV strain WSU 79-1146; cotreatment, 72 h, 10 μM) was 18.82 ± 1.93^c %. For the same compound, the Percentage of protection (FIPV strain WSU 79-1146; cotreatment, 72 h, 20 μM) was 22.25 ± 2.05^c %, the Percentage of protection (FIPV strain WSU 79-1146; posttreatment, 48 h, 5 μM) was 0.08 ± 0.13^a % and the Percentage of protection (FIPV strain WSU 79-1146; posttreatment, 48 h, 10 μM) was 13.31 ± 3.93^b %. The Percentage of protection (FIPV strain WSU 79-1146; posttreatment, 48 h, 20 μM) was 17.28 ± 0.78^bc %, the Percentage of protection (FIPV strain WSU 79-1146; posttreatment, 72 h, 5 μM) was 0.99 ± 1.71^a % and the Percentage of protection (FIPV strain WSU 79-1146; posttreatment, 72 h, 10 μM) was 2.59 ± 1.55^a %. The Percentage of protection (FIPV strain WSU 79-1146; posttreatment, 72 h, 20 μM) was 2.13 ± 1.91^a %, the Percentage of protection (FIPV strain WSU 79-1146; pretreatment, 48 h, 5 μM) was 0.38 ± 0.66^a % and the Percentage of protection (FIPV strain WSU 79-1146; pretreatment, 48 h, 10 μM) was 3.87 ± 1.64^ab %. For the same compound, the Percentage of protection (FIPV strain WSU 79-1146; pretreatment, 48 h, 20 μM) was 12.79 ± 2.27^c %, the Percentage of protection (FIPV strain WSU 79-1146; pretreatment, 72 h, 5 μM) was 1.74 ± 1.06^ab % and the Percentage of protection (FIPV strain WSU 79-1146; pretreatment, 72 h, 10 μM) was 1.16 ± 1.82^a %. For the same compound, the Percentage of protection (FIPV strain WSU 79-1146; pretreatment, 72 h, 20 μM) was 5.12 ± 2.03^bc % and the “Cellular uptake: time at which green fluorescence was first observed” value (CrFK cells) was 3 h.

Source: PMC7262662 (BioMed Research International, 2020)
